The text below walks through data of patent publication US20250009716A1, “NOVEL INHIBITORS OF CLAUDIN-1 FOR THERAPEUTIC INTERVENTIONS” (BOARD OF REGENTS OF THE UNIVERSITY OF NEBRASKA, priority 2021, published 2025).

The subject of data set [1] is SW480claudin-1 cells. In words: Resistance to anoikis in claudin-1 overexpressing cells. Format: cell-based. The following applies: for effect on resistance to anoikis: 72 h treatment; for activity: FIG. 9, printed only as 'activity', kind of value not named. From the text:
(§1) The crystal structure of claudin-1 is unknown. Therefore, an in-silico protein folding program, YASARA, was used to identify an effective claudin-1 inhibitor. The resultant 3D-structure was then modeled using Molegro Virtual Docker (MVD) software program. These in-silico analyses identified putative cavities in the claudin-1 protein that can be targeted by small molecule inhibitors. Next, a 100K library of small molecules was screened in silico using the MVD. The top 10 inhibitors that bound to the Site #3 (targeting near c-terminal domain; the most accessible pocket; FIG. 2A) with the best binding energies were selected as hits and used for further testing. Screening of these inhibitors named Inihibitor-1 (1-1) to Inhibitor-10 (I-10) was done using SW480claudin-1, SW620 and control cells. Claudin-1 deficient HCT116 cells (WT-APC) or SW620shRNAcld-1 were used as negative controls. Resistance to anoikis and cell invasion was used as biological end-points in testing these inhibitors. […] 16 has the following structure:
(§2) To this end, a library of molecules was synthesized in order to develop an initial SAR evaluation. The first compounds tested eliminated the acylated (thio) urea as well as the napthyl group and evaluated just the urea/phenyl compounds (Compounds 1-6). The methoxy group of the naphthalene ring system was needed when the benzimidazole group was present (16 vs. Compound 8). […] The result of metabolic stability was expressed as the percentage of drug remaining at each time. […] To further determine the effect of PDS-0330 on p-Src expression and association, cells were treated with Compound 1, 16 and PDS-0330. Expression and association with p-Src was unaffected with Compound 1 (negative control). The specificity of PDS-0330 for CLDN1 was further confirmed by treating SW480^CLDN1, HCT116^CLDN2 (overexpressing another tight junction protein) or normal IEC-6 cells with PDS-0330 (FIG. 12).

Data set [2] relates to SW480claudin-1 cells. In words: Cell invasion assay. Format: cell-based.
From the text: as §1
To this end, a library of molecules was synthesized in order to develop an initial SAR evaluation. The first compounds tested eliminated the acylated (thio) urea as well as the napthyl group and evaluated just the urea/phenyl compounds (Compounds 1-6). […] The result of metabolic stability was expressed as the percentage of drug remaining at each time. […]

Data set [3] relates to SW480claudin-1 cells xenograft tumors. In words: SW480claudin-1 xenograft tumor growth. Format: in vivo. How it is done:
(A) In-silico 3D-structure of claudin-1, cavities that can be targeted by small molecules were defined using Molegro Virtual Docker. (B) Cell survival assay showing effects of three different inhibitors (I1, I2 and 16). […] (C) Effect of 16 treatment (72 hours) upon resistance to anoikis in claudin-1 overexpressing SW480 cells and claudin-1 deficient HCT116 cells. (D) Effect of 16 treatment on cell invasion in SW480claudin-1 cells. (E) Effect of inhibitor 16 on xenograft tumors. […] Effect on tumor growth was monitored.
Tumor volume and weight were measured.
In vivo validation of the anti-tumorigenic and metastatic effects of 1-6 treatment: (i) Xenograft model. […] These studies are elaborated using claudin-1 positive (HT29, DLD-1, SW620 cells) and negative (HCT116, SW620ShRNA) for similar xenograft tumor growth studies (15,50). Luciferin expressing cells (established in our lab) are used to help examining longitudinal growth of these tumors using live mouse imaging.

The target in data set [4] is T1, claudin-1/Src complex in SW480claudin-1 cells (Homo sapiens, UniProt O95832).
T1 construct: claudin-1 was expressed in a non-metastatic CRC cell line, SW480 cells; expressed in transfected cells; host or cells: SW480 colorectal cancer cells expressing claudin-1 (SW480claudin-1)
T1 sequence (O95832 1-211): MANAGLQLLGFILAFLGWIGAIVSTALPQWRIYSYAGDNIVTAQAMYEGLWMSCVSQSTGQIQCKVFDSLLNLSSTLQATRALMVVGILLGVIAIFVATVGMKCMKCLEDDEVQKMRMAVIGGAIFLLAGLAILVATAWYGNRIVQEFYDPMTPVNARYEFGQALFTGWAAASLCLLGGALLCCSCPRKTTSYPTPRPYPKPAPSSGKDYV
In words: Claudin-1/Src association (proximity ligation assay, Co-IP). The data set is classed as cell-based. The following applies: PLA, Co-IP or immuno-precipitation. From the text:
The CSC cells contribute to the generation of metastasis (16-19), and key CSC characteristics are highly relevant to metastasis, including invasive motility, and, resistance to apoptosis (20,21). […] Considering that chemoresistance is central to the CRC progression and metastasis, we further tested if adjuvant use of 16 with 5FU can have significant bearing upon these traits. Colon cancer cells were subjected to exogenous administration of 16 alone, or in combination with the 5-FU, the conventional anti-CRC drug. […] To further determine the mechanistic details the effect of 16 on association of claudin-1 and Src, SW480claudin-1 cells were treated with 16 or the vehicle and resultant cell lysate was subjected to Proximity ligation assay (PLA) or Co—IP.

Data set [5] has as its system p-Src and c-PARP in SW480claudin-1 overexpressing cells. In words: Expression of p-Src, Src and c-PARP. The data set is classed as cell-based.
From the text: as §2
(§3) Furthermore, DLD-1 chemoresistant cells were treated with PDS-0330 and I-6. […] Based on the in vitro activity and metabolic stability, PDS-0330, and any potential new analogs will be evaluated in animal models to determine the pharmacokinetic properties and biodistribution as described in preliminary data.

Data set [6] concerns DLD-1 chemoresistant cells. In words: p-Src and c-PARP expression in 5FU resistant cells. The data set is classed as cell-based. How it is done:
as §3

Data set [7] has as its system SW620 cells xenograft tumors. Nature of the data set: SW620 xenograft tumors. Format: in vivo, athymic mice. How it is done: SW620 cells were injected into dorsal flanks of athymic mice to form xenograft tumors. PDS-0330 was injected (5 and 10 mg/kg) when tumors became palpable. Effect on tumor volume and size was determined in time-dependent manner.
The development of flank xenograft tumors in claudin-1 overexpressed SW620 cells injected nude mice was examined between vehicle and PDS-0330 (5 mg/kg and 10 mg/kg) treatment (n=5 mice per group). Representative images of tumor containing mice from the vehicle and PDS-0330 (10 mg/kg).

Data set [8] can be described thus: Blood urea nitrogen (BUN) toxicity measurement. Also on record: species or system mice. The following applies: mouse, in vivo. From the text:
Data are expressed as means±SEM (n=5 mice/group).

“Also recorded” adds a separate entry of the source.

Turning to `COc1cc2ccccc2cc1C(=O)NC(=S)Nc1ccc(-c2nc3ccccc3[nH]2)cc1` [Compound 16], in the data set on SW480claudin-1 cells [1], the “effect on resistance to anoikis” value is on record as “most effective” and the activity came to 28.4 µM. For the same compound, the “effect on cell invasion” value in the data set on SW480claudin-1 cells [2] was “most effective”. In data set [3] (16 i.p. 10 mg/kg), the “growth of xenograft tumors” value is “significantly inhibited” and the “toxic effects on xenograft mice” value is “did not observe any toxic effects”. Besides, the “claudin-1/Src (p-Src) association” value in data set [4] is listed as “markedly suppressed; also recorded: reduced”. Besides, in data set [5], the “apoptosis (c-PARP)” value is listed as “increased apoptosis (c-PARP)” and the p-Src expression result is on record as “reduced p-Src expression”. Moreover, in data set [6], the “apoptosis (c-PARP)” value is “increase in apoptosis (c-PARP)” and the p-Src expression entry is given as “decrease in p-Src expression”.
For the compound `O=C(NC(=S)Nc1ccc(-c2nc3ccccc3o2)cc1)c1ccc2ccccc2c1` [PDS-0330], in the data set with SW480claudin-1 cells [1] (8.4 μM vs. 28.4 μM), the “activity improvement of PDS-0330 over 16” value is roughly 3 fold. Also, in the data set with SW480claudin-1 cells [1], the “effect on resistance to anoikis” value is recorded as “most potent compound; also recorded: significantly inhibited” and the activity amounted to 8.4 µM. Also, the “effect on cell invasion” value in the data set on SW480claudin-1 cells [2] is “significantly inhibited”. Moreover, the xenograft tumor growth result in data set [3] (PDS-0330 ip, 2.5, 5 mg/kg) is on record as “decrease in xenograft tumor growth”. The “claudin-1/Src (p-Src) association” value in data set [4] is listed as “most potent effects; also recorded: inhibits Src association”. In data set [5], the “apoptosis (c-PARP)” value is on record as “most potent effects” and the p-Src expression entry is “most potent effects”. Also, in data set [6], the “apoptosis (c-PARP)” value is “increase in apoptosis (c-PARP)” and the p-Src expression entry is “decrease in p-Src expression”. In addition, in data set [7] (5 and 10 mg/kg), the tumor size entry was “reduces tumor size in mice”. In addition, in data set [7] (mouse, in vivo), the tumor weight result was “significantly inhibited tumor weight”. For the same compound, the “cytotoxic effect by blood urea nitrogen (BUN)” value in data set [8] is reported as “no cytotoxic effect in mice”.
